Laboratory results as given in US8461305B2, “L-fucose α1→6 specific lectin” (J-Oil Mills, Inc., priority 2008, dated 2013).

Assay: frontal affinity chromatography (FAC), association constant to PA sugar chains without L-fucose
Assay type: binding
Conditions: 25 degrees C.
Method: The following section will describe a method of calculating an association constant by frontal affinity chromatography (FAC). This method is based on the following principle. […] Then, the elution front end (front) is observed immediately. When there is an affinity with lectin, the elution of the sugar chain is delayed.
The preparation of a lectin column used in the apparatus is performed in the method as described below. 1. Purified lectin is dissolved in 0.1 to 0.2M of NaHCO3 buffer solution (pH 8.3 to 8.5). 2. The lectin is immobilized, via a lectin primary amino group, a carrier such as NHS activated sepharose. 3. Then, the lectin is blocked by Tris buffer solution including primary amine or ethanolamine for example. 4. Lectin-sepharose is suspended in 10 mM Tris buffer, including 0.8% of NaCl (pH 7.4, TBS). Then, lectin immobilized resin is filled in a miniature column (φ2 mm×10 mm, 31.4 μl). 5. The miniature column in which the lectin immobilized resin is filled is protected by a holder and the lectin column is connected to an FAC automatic analysis apparatus (FAC-1, SHIMADZU CORPORATION).
Then, the elution of the PA sugar chain from the column is detected by a fluorescence detector (excitation wavelength/fluorescence wavelength: 310 nm/380 nm).
Based on the detection data, by using the elution front end (Vo) of the sugar chain (PA rhamnose) not interacting with lectin as a reference, the delay (V−Vo) of the elution front end (V) of a sugar chain interacting with lectin is calculated as an interaction strength. Then, based on the following FAC criteria expressions, the association constant (Ka) between the sugar chain and lectin is calculated based on V−Vo and Bt. If the interaction strength (V−Vo value) and the association constant are higher, a higher affinity is caused between lectin and an L-fucose α1→6 sugar chain.
[In the formula, A means substance used for the elution, Ao means the initial concentration of the substance A, B means a immobilized ligand, V means the elution volume, Vo means the elution front end volume of the substance not interacting with the immobilized ligand B at all, Bt means an effective ligand amount, Kd means a dissociation constant (an inverse of the association constant)].
Pyridylaminated (PA) sugar chains shown in FIG. 1 and FIG. 2 were used to frontal affinity chromatography (FAC) analysis. PA sugars were purchased from TAKARA BIO INC., SEIKAGAKU BIOBUSINESS CORPORATION, and Masuda Chemical Industries co., LTD. PA sugar were also obtained by pyridylaminating, by GlycoTAG®(TAKARA BIO INC.), an unlabeled sugar chain or a sugar chain obtained by subjecting a sugar chain to enzyme digestion for example.
Lectin was dissolved in 0.2 M NaHCO3 buffer solution (pH 8.3) including 0.5 M NaCl and coupled to the NHS-activated sepharose (GE Healthcare Bioscience) by following the manufacturer's instructions. Then, lectin immobilized sepharose was suspended in 10 mM Tris buffer (pH 7.4, TBS) including […] and the resultant matter was filled in a miniature column (φ2 mm×10 mm, 31.4 μl).
Frontal affinity chromatography was performed using FAC automatic analysis apparatus (FAC-1, SHIMADZU CORPORATION). In particular, the above-prepared lectin column was inserted to a stainless steel holder and the holder was connected to FAC-1 apparatus. The flow rate and the column temperature were maintained at 0.125 ml/min and 25 degrees C., respectively. After the miniature column was equilibrated by the TBS, an excessive volume (0.5 ml to 4 ml) of a PA sugar chain (3.75 nM or 7.5 nM) was continuously inputted to the column using an automatic sampling apparatus.
The fluorescent strength of the eluate of the PA sugar (excitation wavelength of 310 nm and fluorescence wavelength of 380 nm) was monitored to measure the interaction strength [a difference of the front end eluate to the standard oligosaccharide (PA rhamnose): V−V0]. […]

## Aspergillus oryzae lectin [AOL, reference compound]
Sugar chain No. 001
  association constant Ka: <1000 M⁻¹
Sugar chain No. 002
  association constant Ka: <1000 M⁻¹
Sugar chain No. 003
  association constant Ka: <1000 M⁻¹
Sugar chain No. 004
  association constant Ka: <1000 M⁻¹
Sugar chain No. 005
  association constant Ka: 7300 M⁻¹
Sugar chain No. 006
  association constant Ka: <1000 M⁻¹
Sugar chain No. 007
  association constant Ka: <1000 M⁻¹
Sugar chain No. 008
  association constant Ka: 69000 M⁻¹
Sugar chain No. 009
  association constant Ka: <1000 M⁻¹
Sugar chain No. 010
  association constant Ka: <1000 M⁻¹
Sugar chain No. 011
  association constant Ka: <1000 M⁻¹
Sugar chain No. 012
  association constant Ka: <1000 M⁻¹
Sugar chain No. 013
  association constant Ka: <1000 M⁻¹
Sugar chain No. 014
  association constant Ka: <1000 M⁻¹
Sugar chain No. 101
  association constant Ka: <1000 M⁻¹
Sugar chain No. 103
  association constant Ka: <1000 M⁻¹
Sugar chain No. 104
  association constant Ka: <1000 M⁻¹
Sugar chain No. 105
  association constant Ka: <1000 M⁻¹
Sugar chain No. 107
  association constant Ka: <1000 M⁻¹
Sugar chain No. 108
  association constant Ka: <1000 M⁻¹
Sugar chain No. 301
  association constant Ka: 18000 M⁻¹
Sugar chain No. 304
  association constant Ka: 20000 M⁻¹
Sugar chain No. 305
  association constant Ka: <1000 M⁻¹
Sugar chain No. 307
  association constant Ka: <1000 M⁻¹
Sugar chain No. 308
  association constant Ka: 20000 M⁻¹
Sugar chain No. 313
  association constant Ka: <1000 M⁻¹
Sugar chain No. 314
  association constant Ka: <1000 M⁻¹
Sugar chain No. 323
  association constant Ka: <1000 M⁻¹
Sugar chain No. 501
  association constant Ka: <1000 M⁻¹
Sugar chain No. 502
  association constant Ka: <1000 M⁻¹
Sugar chain No. 503
  association constant Ka: <1000 M⁻¹
Sugar chain No. 504
  association constant Ka: <1000 M⁻¹
Sugar chain No. 701
  association constant Ka: <1000 M⁻¹
Sugar chain No. 702
  association constant Ka: <1000 M⁻¹
Sugar chain No. 703
  association constant Ka: <1000 M⁻¹
Sugar chain No. 704
  association constant Ka: <1000 M⁻¹
Sugar chain No. 705
  association constant Ka: <1000 M⁻¹
Sugar chain No. 706
  association constant Ka: <1000 M⁻¹
Sugar chain No. 707
  association constant Ka: <1000 M⁻¹
Sugar chain No. 708
  association constant Ka: <1000 M⁻¹
Sugar chain No. 709
  association constant Ka: <1000 M⁻¹
Sugar chain No. 710
  association constant Ka: <1000 M⁻¹
Sugar chain No. 711
  association constant Ka: <1000 M⁻¹
Sugar chain No. 712
  association constant Ka: <1000 M⁻¹
Sugar chain No. 713
  association constant Ka: <1000 M⁻¹
Sugar chain No. 715
  association constant Ka: <1000 M⁻¹
Sugar chain No. 716
  association constant Ka: <1000 M⁻¹
Sugar chain No. 717
  association constant Ka: <1000 M⁻¹
Sugar chain No. 724
  association constant Ka: <1000 M⁻¹
Sugar chain No. 725
  association constant Ka: <1000 M⁻¹
Sugar chain No. 728 (as listed in Table 7)
  association constant Ka: <1000 M⁻¹
Sugar chain No. 732
  association constant Ka: <1000 M⁻¹
Sugar chain No. 733
  association constant Ka: <1000 M⁻¹
Sugar chain No. 734
  association constant Ka: <1000 M⁻¹
Sugar chain No. 735
  association constant Ka: <1000 M⁻¹
Sugar chain No. 736
  association constant Ka: <1000 M⁻¹
Sugar chain No. 737
  association constant Ka: <1000 M⁻¹
Sugar chain No. 738
  association constant Ka: <1000 M⁻¹
Sugar chain No. 901
  association constant Ka: <1000 M⁻¹
Sugar chain No. 902
  association constant Ka: <1000 M⁻¹
Sugar chain No. 903
  association constant Ka: <1000 M⁻¹
Sugar chain No. 905
  association constant Ka: <1000 M⁻¹
Sugar chain No. 906
  association constant Ka: <1000 M⁻¹
Sugar chain No. 907
  association constant Ka: <1000 M⁻¹
